Experimental findings from patent US20090148540A1, “Antibacterial composition and method of production” (MI HOPE INCORPORATED, priority 2007, published 2009) are described below.

The assay deals with MRSA. The assay is described as follows: Anti-MRSA activity on dried surface areas swabbed with MRSA broth, surveyed with MRSA selective agar plates. In kind it is cell-based, Staphylococcus aureus. The settings on record: surface areas previously swabbed with MRSA broth; treated areas dried 30 minutes; MEC DD Checker Plates; copper citrate solution (22 volts, 2.8 amps, 2 hours) diluted 1 to 10 in water.

Description: In one protocol, the diluted copper citrate solution was applied to several dried surface areas that had been previously swabbed with an MRSA containing broth solution. The treated areas were allowed to dry over the next 30 minutes. An MRSA selective agar medium was then used to survey the areas for residual MRSA (MEC DD Checker Plates obtained from Denka Seiken, Inc., Japan). For control, similarly contaminated areas were either left untreated or exposed to the original starting 5% citric acid solution.

In the case of `O=C(O)CC(O)(CC(=O)O)C(=O)O` [5% citric acid solution, citric acid], the “residual MRSA growth on MRSA selective agar medium from treated surface areas” value was “numerous MRSA colonies developed”.
